Test results published in ChEMBL document CHEMBL5674860, “Optimized Dual-Glo Assay to identify co-culture-induced drug vulnerabilities in 3D CRC models” (2024).

Legend:
Format in all cases: functional, Homo sapiens
Parameters in all cases: dose or concentration left out as unconfirmed
[1] = tested on: Colon cancer organoid; assay: Optimized Dual-Glo assay to identify co-culture induced drug vulnerabilities using donated chemical probes and chemogenomics kinase set in O20 CRC organoid and F20 CAF mono and co-culture. […] Cell viability is reported both mono and co-culture models.
[2] = tested on: Colon cancer organoid; assay: Optimized Dual-Glo assay to identify co-culture induced drug vulnerabilities using donated chemical probes and chemogenomics kinase set in O14 CRC organoid and F14 CAF mono and co-culture. […] Cell viability is reported both mono and co-culture models.
[3] = tested on: Colon cancer organoid; assay: Optimized Dual-Glo assay to identify co-culture induced drug vulnerabilities using donated chemical probes and chemogenomics kinase set in O06 CRC organoid and F06 CAF mono and co-culture. […] Cell viability is reported both mono and co-culture models.
[4] = Culture type Co-Culture, Transduced with Lucferase2-P2A-EGFP lentivirus
[5] = Culture type Co-Culture, Transduced with Renilla-dsRed lentivirus
[6] = Culture type Mono-Culture, Transduced with Lucferase2-P2A-EGFP lentivirus
[7] = Culture type Mono-Culture, Transduced with Renilla-dsRed lentivirus

Structure (SMILES)	Cell Viability [1, 4]	Cell Viability [1, 5]	Cell Viability [1, 6]	Cell Viability [1, 7]	Cell Viability [2, 4]	Cell Viability [2, 5]	Cell Viability [2, 6]	Cell Viability [2, 7]	Cell Viability [3, 4]	Cell Viability [3, 5]	Cell Viability [3, 6]	Cell Viability [3, 7]
Cc1ccc(-c2ccc3c(ccc4sc5c(c43)NC[C@@H](C)NC5=O)n2)cn1	152.499%	70.7863%	154.638%	67.5844%	126.339%	65.0441%	182.208%	70.7861%	100.355%	85.371%	114.604%	88.0896%
CN1CCN(C(=O)C(C)(C)c2ccc(C(=O)Nc3cn4cc(-c5cc(C(C)(C)C)cc(C(C)(C)C)c5)ccc4n3)cc2)CC1 [T3-CLK-N]	83.0148%	112.725%	124.688%	67.9916%	129.357%	95.6255%	93.4655%	83.9103%	119.67%	85.6501%	109.915%	85.7063%
O=C(NCC(=O)N1CCCC1)Nc1ccc2cnccc2c1	120.858%	100.064%	123.325%	84.2387%	77.6259%	126.417%	75.4606%	109.537%	80.3687%	124.064%	84.4387%	94.1078%
CC1=C(C(=O)Nc2cc3cn[nH]c3cc2F)C(c2ccc(C(F)(F)F)cc2)CC(=O)N1 (stereo not drawn)	133.522%	94.2958%	98.8555%	95.2955%	79.4624%	111.728%	79.1311%	103.404%	110.512%	74.1449%	112.137%	107.646%
Cc1c(Oc2ccc(F)cc2)c(OC(C)C)nn1-c1ccc(C2CC2)cn1 [IPP/CNRS-A019]	91.1919%	118.396%	98.5803%	101.782%	97.1985%	110.863%	115.046%	92.4816%	92.46%	90.9232%	83.1676%	103.472%
Cc1cc(NC(=O)c2cccc(S(F)(F)(F)(F)F)c2)cc(-n2ccn3nc(-c4cccnc4)cc23)c1 [BAY-309]	122.672%	127.793%	129.399%	97.9255%	98.153%	84.8781%	155.954%	76.6739%	84.4525%	147.367%	49.1708%	77.7093%
O=C(NCCN1CCOCC1)c1ccc2c(c1)C(=O)c1ccc(Nc3ccc(F)c(NC(=O)c4ccccc4)c3)cc1CC2 [FS-694]	66.004%	119.038%	94.4809%	79.2545%	102.563%	98.243%	144.079%	81.8914%	67.8661%	67.282%	66.9088%	83.7797%
CNC(=O)c1ccccc1Nc1cc(Nc2ccc(N3CCOCC3)cc2OC)ncc1C(F)(F)F [VS-4718]	13.8337%	72.4438%	12.23%	46.798%	33.8151%	68.2368%	15.2403%	46.526%	52.8737%	57.2971%	31.5838%	48.5863%
CNC(=O)c1cc(C(=O)NC2CC2)cn(Cc2ccccc2)c1=O [GSK620]	92.6025%	100.747%	72.9667%	110.848%	179.546%	145.239%	105.323%	134%	111.223%	132.009%	81.6367%	131.621%
CCc1cc(Nc2nccc(-c3c(-c4ccc(OC)c(C(=O)Nc5c(F)cccc5F)c4)nc4ccccn34)n2)c(OC)cc1N1CCC(N2CCN(S(C)(=O)=O)CC2)CC1	116.043%	82.2783%	81.9449%	100.572%	94.7667%	100.13%	92.2589%	95.6551%	86.7992%	78.7013%	91.9397%	111.569%
CN(C(=O)c1ccccc1)c1cc(N(C)c2ccc3c(c2)CCc2ccc(C(=O)NCCN4CCOCC4)cc2C3=O)ccc1F [FM-743]	87.5807%	153.202%	104.972%	128.329%	83.789%	122.182%	115.906%	98.7995%	67.0526%	69.6878%	72.1659%	109.641%
COc1ccc(COc2ccc(Cc3cnc(N)nc3N)cc2OC)cc1 [GW632580X]	200.024%	84.9331%	115.095%	88.8877%	102.637%	115.835%	144.397%	94.931%	84.8428%	83.7807%	109.175%	109.596%
Cc1cc(CN)cc(C)c1-c1ncn(C)c1-c1cncn1C	127.582%	117.48%	113.288%	98.6435%	82.5441%	115.965%	119.104%	86.3829%	121.461%	141.638%	159.088%	144.43%
COc1cccc2c1c(O)c(C(=O)N(C)c1ccc(C(F)(F)F)cc1)c(=O)n2C [TASQUINIMOD]	63.9822%	99.9703%	87.5673%	108.719%	94.583%	144.919%	82.4794%	97.8059%	78.5663%	130.265%	63.1287%	110.699%
